{"source": "patent US6316020A", "about": "“Pharmaceutical formulations” (priority 2000, dated 2001)", "assay": "Solubility assessment as a function of HPβCD concentration", "format": "physicochemical", "details": "water", "procedure": "Solubility studies were performed by the addition of a known mass of 5(6)-methoxy-2-[[(4-methoxy-3,5-dimethyl-2-pyridinyl)-methyl]sulfinyl]-1H- benzimidazole and/or HP CD to a given volume of solvent system. Solubilities were determined by observation, as the maximum concentration at which 5(6)-methoxy-2-[[(4-methoxy-3,5-dimethyl-2-pyridinyl)-methyl]sulfinyl]-1H- benzimidazole completely dissolved. Additionally, concentrations of 5(6)-methoxy-2-[[(4-methoxy-3,5-dimethyl-2-pyridinyl)-methyl]sulfinyl]-1H- benzimidazole and HP C D at set molar ratios were solubilized in systems of high pH (adjusted as high as 12.2, with 1N NaOH), the pH was adjusted (using 2N HCl) in a stepwise downward manner until precipitation occurred.\nThe solubility of 5(6)-methoxy-2-[[(4-methoxy-3,5-dimethyl-2-pyridinyl)-methyl]sulfinyl]-1H- benzimidazole was assessed as a function of HPβCD concentration in water.\nThe procedure according to Example 86 was repeated except that water with a borate buffer (pH of 8) was employed.\nThe procedure according to Example 86 was repeated except that water with a phosphate buffer (pH of 11) was employed.", "data": [{"molecule": "COc1ccc2[nH]c([S+]([O-])Cc3ncc(C)c(OC)c3C)nc2c1", "note": "(centres unmarked) [5(6)-methoxy-2-[[(4-methoxy-3,5-dimethyl-2-pyridinyl)-methyl]sulfinyl]-1H-benzimidazole]", "values": [{"measurement": "Solubility as a function of HPβCD concentration", "result": "increase linearly as a function of HPβCD concentration"}, {"measurement": "influence of pH on solubility", "result": "influenced by solution pH"}]}]}
